Assay results published in PMC12217461 (Antimicrobial Agents and Chemotherapy, 2025).

Tests used:
Assay type in all cases: cell-based
E. coli NDM-1* (S262G) = assay: MIC broth microdilution, recombinant E. coli; conditions: Escherichia coli, TAN/XER fixed at 4 µg/mL, XER 8 µg/mL in MEM-XER, read-out: Minimal inhibitory concentration
Source text: (§1) Genes encoding different acquired IMP-like enzymes suspected to be resistant to XER (blaIMP-6, blaIMP-7, blaIMP-10, blaIMP-14, blaIMP-26, blaIMP-34, and blaIMP-59) were amplified by PCR, and corresponding amplicons were cloned into plasmid pUCP24 and expressed in E. coli TOP10. The following recombinant E. coli strains producing IMP-1, IMP-4, IMP-19, and NDM-1 were used from a previous study ([16]). […] For that purpose, a list of primers was designed and provided as Table S1. […] The nomenclature used in this study was according to the BBL sequence numbering ([52]).
(§2) To assess the inhibitory potency of XER, susceptibility testing was performed by broth microdilution method, determining the minimal inhibitory concentrations (MICs) of different antibiotics or antibiotic plus β-lactamase inhibitor combinations, including cefepime (FEP), imipenem (IPM), meropenem (MEM), and their combinations with XER (FEP-XER, IPM-XER, and MEM-XER). All data obtained with XER-based combinations were compared with data with TAN-based combinations, FEP-TAN, IPM-TAN, and MEM-TAN ([16]). FEP was purchased from Sigma-Aldrich (Saint-Louis, USA), whereas MEM was from HuiChem (Shanghai, China). […] MICs were determined in triplicate in cation-adjusted Mueller-Hinton (MH) broth (Bio-Rad, Marnes-la-Coquette, France) according to the CLSI guidelines ([53]). The results were interpreted according to the decrease in MIC value for the same antibiotic or combination of the corresponding recombinant strain producing the MBL enzyme. […] In a recent phase I clinical evaluation, XER was combined with cefiderocol. However, as this latter β-lactam substrate is known to be poorly hydrolyzed by IMP enzymes, it was not considered for the evaluation of XER inhibitory activity in this study. Instead, carbapenems were used as a substrate to evaluate the β-lactamase IMP activity in the presence or absence of XER and TAN, as it was deemed more specific for the IMP carbapenemase activity.

E. coli IMP-26 = assay: MIC broth microdilution, recombinant E. coli; conditions: Escherichia coli, IMP26; IMP-4 like, V67F; TAN/XER fixed at 4 µg/mL, XER 8 µg/mL in MEM-XER; read-out: Minimal inhibitory concentration
Source text: as §1, §2

E. coli IMP-6 = assay: MIC broth microdilution, recombinant E. coli; conditions: Escherichia coli, IMP6; IMP-1-like, S262G; TAN/XER fixed at 4 µg/mL, XER 8 µg/mL in MEM-XER; read-out: Minimal inhibitory concentration
Source text: as §1, §2

[1] = test system: E. coli IMP-14 Mutant 4 (D227Y); assay: MIC broth microdilution, recombinant E. coli; conditions: Escherichia coli; IMP-14 D227Y; TAN/XER fixed at 4 µg/mL, XER 8 µg/mL in MEM-XER; read-out: Minimal inhibitory concentration
Source text: as §1, §2

E. coli IMP-14 = assay: MIC broth microdilution, recombinant E. coli; conditions: Escherichia coli, IMP14; IMP-2-like, multiple substitutions; TAN/XER fixed at 4 µg/mL, XER 8 µg/mL in MEM-XER; read-out: Minimal inhibitory concentration
Source text: as §1, §2

E. coli IMP-1 = assay: MIC broth microdilution, recombinant E. coli; conditions: Escherichia coli, IMP1; IMP-1-like; TAN/XER fixed at 4 µg/mL, XER 8 µg/mL in MEM-XER; read-out: Minimal inhibitory concentration
Source text: as §1, §2

E. coli IMP-59 = assay: MIC broth microdilution, recombinant E. coli; conditions: Escherichia coli, IMP59; IMP-4 like, N233Y; TAN/XER fixed at 4 µg/mL, XER 8 µg/mL in MEM-XER; read-out: Minimal inhibitory concentration
Source text: as §1, §2

E. coli IMP-10 = assay: MIC broth microdilution, recombinant E. coli; conditions: Escherichia coli, IMP10; IMP-1-like, V67F; TAN/XER fixed at 4 µg/mL, XER 8 µg/mL in MEM-XER; read-out: Minimal inhibitory concentration
Source text: as §1, §2

E. coli IMP-4 = assay: MIC broth microdilution, recombinant E. coli; conditions: Escherichia coli, IMP4; IMP-4 like; TAN/XER fixed at 4 µg/mL, XER 8 µg/mL in MEM-XER; read-out: Minimal inhibitory concentration
Source text: as §1, §2

E. coli NDM-1 = assay: MIC broth microdilution, recombinant E. coli; conditions: Escherichia coli, NDM1; NDM-1-like; TAN/XER fixed at 4 µg/mL, XER 8 µg/mL in MEM-XER; read-out: Minimal inhibitory concentration
Source text: as §1, §2

E. coli IMP-2 = assay: MIC broth microdilution, recombinant E. coli; conditions: Escherichia coli, IMP2; IMP-2-like; TAN/XER fixed at 4 µg/mL, XER 8 µg/mL in MEM-XER; read-out: Minimal inhibitory concentration
E. coli TOP10 = assay: microbe, parasite or virus in culture; conditions: Escherichia coli, no MBL, TAN/XER fixed at 4 µg/mL, XER 8 µg/mL in MEM-XER, read-out: Minimal inhibitory concentration
Source text: as §1, §2

E. coli IMP-34 = assay: MIC broth microdilution, recombinant E. coli; conditions: Escherichia coli, IMP34; IMP-1-like, E126G; TAN/XER fixed at 4 µg/mL, XER 8 µg/mL in MEM-XER; read-out: Minimal inhibitory concentration
Source text: as §1, §2

E. coli IMP-7 = assay: MIC broth microdilution, recombinant E. coli; conditions: Escherichia coli, IMP7; IMP-7-like; TAN/XER fixed at 4 µg/mL, XER 8 µg/mL in MEM-XER; read-out: Minimal inhibitory concentration
Source text: as §1, §2

[2] = test system: Enterobacter hormaechei (cluster III) SMART 271; assay: microbe, parasite or virus in culture; conditions: read-out: Minimal inhibitory concentration
Procedure: Most isolates and their respective β-lactamase content were characterized by whole-genome sequencing.
as §2

Row | Structure (SMILES) | MIC (E. coli NDM-1* (S262G)) [mg/L] | MIC (E. coli IMP-26) [mg/L] | MIC (E. coli IMP-6) [mg/L] | MIC [1] [mg/L] | MIC (E. coli IMP-14) [mg/L] | MIC (E. coli IMP-1) [mg/L] | MIC (E. coli IMP-59) [mg/L] | MIC (E. coli IMP-10) [mg/L] | MIC (E. coli IMP-4) [mg/L] | MIC (E. coli NDM-1) [mg/L] | MIC (E. coli IMP-2) [mg/L] | MIC (E. coli TOP10) [mg/L] | MIC (E. coli IMP-34) [mg/L] | MIC (E. coli IMP-7) [mg/L] | MIC [2] [mg/L]
1 | CO/N=C(\C(=O)N[C@@H]1C(=O)N2C(C(=O)[O-])=C(C[N+]3(C)CCCC3)CS[C@H]12)c1csc(N)n1 [FEP, cefepime] | 1 | 32 | 4 | 128 | 64 | 32 | 8 | 64 | 8 | 4 | 8 | ≤ 0.25 |  |  | 
2 | C[C@@H](O)[C@H]1C(=O)N2C(C(=O)O)=C(S[C@@H]3CN[C@H](C(=O)N(C)C)C3)[C@H](C)[C@H]12 [MEM, meropenem] | 32 | 128 | 64 | 8 | 4 | 8 | 8 | 64 | 8 | 2 | 1 | ≤ 0.25 | 2 | 2 | 0.5
3 | C[C@@H](O)[C@H]1C(=O)N2C(C(=O)O)=C(SCCN=CN)C[C@H]12 [IPM, imipenem] | 0.25 | 8 | ≤ 0.25 | 8 | 1 | 4 | 0.5 | 16 | 1 | 2 | 0.5 | ≤ 0.25 | 0.5 | 0.25 | 0.5
